Patent US20090023741A1, “ARYL/HETARYLAMIDES AS MODULATORS OF THE EP2 RECEPTOR” (priority 2007, published 2009)
pIC50: −log10 of the molar value.

Assays:
[1] = system: cumulus-oocyte complexes (cumulus expansion); experiment: Cumulus expansion assay in vitro; assay type: cell-based, mice; details: in competition with PGE2
Method: Folliculogenesis is induced in immature female mice (strain: CD1 (ICR) from Charles River) at an age of 14-18 days by a single dose (intraperitoneal) of 10 I.U. of PMSG (Pregnant Mare Serum Gonadotropine; Sigma G-4877, Lot 68H0909). 47-50 hours after the injection, the ovaries are removed and the cumulus-oocyte complexes are removed. The cumulus complex is not yet expanded at this stage.
The cumulus-oocyte complexes are then incubated with prostaglandin E2 (PGE2) (0.3 μM), vehicle control (ethanol) or test substances for 20-24 hours. Medium: alpha-MEM medium with 0.1 mM IBMX, pyruvates (0.23 mM) glutamines (2 mM), pen/strep 100 IU/ml pen. and 100 μg/ml strep.) and HSA (8 mg/ml)). Cumulus expansion is then established through the division into four stages (according to Vanderhyden et al. Dev Biol. 1990 August; 140(2):307-317).

[2] = target: T1, EP2 subtype of the human PGE2 receptor (Homo sapiens, UniProt P43116); experiment: cAMP antagonism assay (HTRF, PGE2-stimulated cells); assay type: cell-based; details: in presence of PGE2
T1 construct: host or cells: cells in a cell culture plate
Method: (§1) The binding of PGE2 to the EP2 subtype of the human PGE2 receptor induces activation of membrane-associated adenylate cyclases and leads to the formation of cAMP. In the presence of the phosphodiesterase inhibitor IBMX, cAMP which has accumulated due to this stimulation and been released by cell lysis is employed in a competitive detection method. In this assay, the cAMP in the lysate competes with cAMP-XL665 for binding of an Eu cryptate-labelled anti-cAMP antibody.
(§2) The two signals are measured in a suitable measuring instrument with a time lag, i.e. after the background fluorescence has declined.
(§3) The substance solutions (0.75 μl) introduced into an assay plate and 30% DMSO are dissolved in 16 μl of a KRSB+IBMX stimulation solution (1× Krebs-Ringer Bicarbonate Buffer; Sigma-Aldrich # K-4002; including 750 μM 3-isobutyl-1-methylxanthine Sigma-Aldrich # I-7018), and then 15 μl thereof are transferred into a media-free cell culture plate which has been washed with KRSB shortly beforehand.
After preincubation at room temperature (RT) for 30 minutes, 5 μl of a 4×PGE2 solution (11 nM) are added, and incubation is carried out in the presence of the agonist at RT for a further 60 min (volume: ˜20 μl) before the reaction is then stopped by adding 5 μl of lysis buffer and incubated at RT for a further 20 min (volume: 25 μl). The cell lysate is then transferred into a measuring plate and measured in accordance with the manufacturer's information (cyclic AMP kit Cisbio International # 62AMPPEC).

[3] = target: T1, EP2 subtype of the human PGE2 receptor; experiment: cAMP agonism assay (cellular agonism test); assay type: cell-based; details: without PGE2
Method: as §1, §2, §3
After incubation at room temperature (RT; volume: ˜15 μl) for 60 minutes, the reaction is then stopped by adding 5 μl of lysis buffer and incubated at RT for a further 20 min (volume: ˜20 μl). The cell lysate is then transferred into a measuring plate and measured in accordance with the manufacturer's information (cyclic AMP kit Cisbio International # 62AMPPEC).

T1 sequence (P43116 whole entry): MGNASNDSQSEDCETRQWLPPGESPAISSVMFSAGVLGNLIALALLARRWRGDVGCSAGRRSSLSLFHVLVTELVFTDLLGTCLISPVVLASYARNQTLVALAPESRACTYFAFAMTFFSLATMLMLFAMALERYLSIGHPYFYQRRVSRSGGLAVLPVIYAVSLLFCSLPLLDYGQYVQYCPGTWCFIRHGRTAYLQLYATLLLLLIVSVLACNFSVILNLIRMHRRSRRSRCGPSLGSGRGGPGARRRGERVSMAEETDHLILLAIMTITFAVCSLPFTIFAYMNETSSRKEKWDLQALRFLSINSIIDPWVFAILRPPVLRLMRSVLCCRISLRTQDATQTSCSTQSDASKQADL

Structure (SMILES)	inhibition of cumulus expansion ([1]; concentration 100-200 μM) [%]	pIC50 [2]	inhibition at 10 µM ([1]; Mus musculus, concentration 10 μM) [%]	effect in the cellular agonism test [3]
CC(C)Oc1ccc2c(=O)c3cc(C(=O)O)ccc3oc2c1 [AH 6809, reference compound]	~30	–	–	–
COc1cc(C(=O)NCCc2c(C)[nH]c3c(F)ccc(C)c23)cc(OC)c1OC [Example 2, N-[2-(7-Fluoro-2,4-dimethyl-1H-indol-3-yl)ethyl]-3,4,5-trimethoxybenzamide]	–	5.17	–	–
Cc1[nH]c2c(F)ccc(C)c2c1CCNC(=O)c1ccc(C(F)(F)F)cc1 [Example 6, N-[2-(7-Fluoro-2,4-dimethyl-1H-indol-3-yl)ethyl]-4-trifluoromethylbenzamide]	–	5.82	–	–
Cc1[nH]c2c(F)ccc(C)c2c1CCNC(=O)c1ccc(-c2ccc(F)cc2)cc1 [Example 29, 4′-Fluorobiphenyl-4-carboxylic acid [2-(7-fluoro-2,4-dimethyl-1H-indol-3-yl)ethyl]amide]	–	5.92	~20	no inhibition
